“And” between values parts separate entries of the source, which are not always exact repeats. Equal values may be shown once. Read-outs that look alike come from different tables or passages of the source.
Key:
Format in all cases: biochemical
TC.PTPase = target: T1, TC.PTPase (Homo sapiens, UniProt P17706); test: Effectors of PTPase activity, full-length enzyme
T1 construct: open reading frames of the full-length 48-kDa T cell PTPase (TC.PTPase); made in house; host or cells: Sf9 (Spodoptera frugiperda) insect cells, recombinant baculovirus (pVL 941)
T1 sequence (P17706 1-415): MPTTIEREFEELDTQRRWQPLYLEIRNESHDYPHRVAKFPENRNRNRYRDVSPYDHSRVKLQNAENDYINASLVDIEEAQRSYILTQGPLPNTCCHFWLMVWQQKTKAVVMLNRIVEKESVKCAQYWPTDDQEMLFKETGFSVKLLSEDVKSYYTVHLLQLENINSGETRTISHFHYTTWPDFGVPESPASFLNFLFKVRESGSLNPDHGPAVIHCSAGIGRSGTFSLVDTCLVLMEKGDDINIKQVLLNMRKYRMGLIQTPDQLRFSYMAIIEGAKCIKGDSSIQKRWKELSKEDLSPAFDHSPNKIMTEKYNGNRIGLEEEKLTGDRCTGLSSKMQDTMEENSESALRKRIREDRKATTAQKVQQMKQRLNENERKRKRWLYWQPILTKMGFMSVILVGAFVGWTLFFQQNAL
Protocol: (§1) Cell extracts or purified enzymes were assayed for tyrosine phosphatase using a method described by Tonks et al., in "Purification of the Major Protein-tyrosine-phosphatases of Human Placenta," J. Biol. Chem. (263):6722-6730, 1988, based on measurement of the release of ^32P from labeled substrate. Since phosphorylation of reduced, carboxyamidomethylated, maleylated (RCM)-lysozyme is not stoichiometric, concentrations are expressed in terms of ^32P phosphotyrosine. Briefly, a mixture of 0.02 ml of PTPase (diluted to less than 1 unit/ml in Buffer A) and 0.02 ml of Buffer A was warmed at 30°C for 5 minutes. Buffer A is composed of 25 mM imidazole HCl […], 1 mg/ml BSA, 0.1% (v/v) β-mercaptoethanol. […] The reaction was terminated after approximately 10 minutes by addition of 0.18 ml of 20% (w/v) trichloroacetic acid and 0.02 ml of 25 mg/ml BSA, added as a carrier protein. The suspension was vortexed, allowed to stand on ice for 10 minutes, and centrifuged at 12,500 x g for 3 minutes. A 0.2-ml aliquot of the supernatant was added to 1 ml of Aquasol scintillant and counted in a Beckman LS7000 scintillation counter. […] Blank incubations were performed in which the PTPase was replaced by Buffer A, and total ^32P was determined by counting 0.02 ml of the substrate. […] One unit of PTPase activity is defined as that amount which releases 1 nmol of phosphate/min. […]

TCΔC11.PTPase [1] = target: T2, TCΔC11.PTPase (Homo sapiens, UniProt P17706); test: Effectors of PTPase activity, truncated enzyme
T2 construct: a truncated PTPase in which an 11-kDa segment was deleted from the carboxyl end (TCΔC11.PTPase-transfected cells); made in house; host or cells: Sf9 (Spodoptera frugiperda) insect cells, recombinant baculovirus (pVL 941)
T2 sequence (P17706 1-317 limits assumed): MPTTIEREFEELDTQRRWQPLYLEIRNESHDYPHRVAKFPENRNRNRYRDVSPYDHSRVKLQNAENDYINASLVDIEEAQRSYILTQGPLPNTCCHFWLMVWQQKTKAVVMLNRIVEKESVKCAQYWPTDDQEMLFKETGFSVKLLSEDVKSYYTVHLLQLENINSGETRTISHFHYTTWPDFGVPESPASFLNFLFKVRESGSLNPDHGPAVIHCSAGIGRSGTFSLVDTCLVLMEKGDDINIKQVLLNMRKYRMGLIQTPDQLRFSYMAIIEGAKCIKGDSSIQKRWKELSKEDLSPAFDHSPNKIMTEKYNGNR

TCΔC11.PTPase [2] = target: T2, TCΔC11.PTPase; test: Effectors of PTPase activity, truncated enzyme; details: substrate RCML 5 µM
Protocol: as §1

[3] = effector 2 mM, substrate MBP 5 µM
[4] = effector 0.01 µM, substrate MBP 5 µM
[5] = effector 1 µM, substrate MBP 5 µM
[6] = effector 10 µM, substrate MBP 5 µM
[7] = effector 10 µM, substrate RCML 5 µM
[8] = effector 100 µM, substrate MBP 5 µM

Compound: NCCCNCCCCNCCCN [spermine]
- Activity, percentage of phosphate released relative to control in which the effector was omitted (TC.PTPase): 62 percentage
- activation of the full-length enzyme (TC.PTPase): up to sevenfold
- remaining activity at 2000 µM (TC.PTPase; 10 min, read-out: Activity, percentage of phosphate released relative to control in which the effector was omitted): 727%
- Activity, percentage of phosphate released relative to control in which the effector was omitted (TCΔC11.PTPase [1]): 110 percentage and 97 percentage

Compound: NCCCCNCCCN [spermidine]
- Activity, percentage of phosphate released relative to control in which the effector was omitted (TC.PTPase; [3]): 43 percentage
- Activity, percentage of phosphate released relative to control in which the effector was omitted (TC.PTPase; effector 2 mM, substrate RCML 5 µM): 249 percentage
- Activity, percentage of phosphate released relative to control in which the effector was omitted (TCΔC11.PTPase [2]; effector 2 mM): 132 percentage
- Activity, percentage of phosphate released relative to control in which the effector was omitted (TCΔC11.PTPase [1]; [3]): 108 percentage

Compound: poly Glu:Tyr 4:1
- Activity, percentage of phosphate released relative to control in which the effector was omitted (TC.PTPase; [4]): 119 percentage
- Activity, percentage of phosphate released relative to control in which the effector was omitted (TC.PTPase; effector 0.01 µM, substrate RCML 5 µM): 66 percentage
- Activity, percentage of phosphate released relative to control in which the effector was omitted (TC.PTPase; [5]): 133 percentage
- Activity, percentage of phosphate released relative to control in which the effector was omitted (TC.PTPase; effector 1 µM, substrate RCML 5 µM): 18 percentage
- Activity, percentage of phosphate released relative to control in which the effector was omitted (TC.PTPase; [6]): 58 percentage
- Activity, percentage of phosphate released relative to control in which the effector was omitted (TC.PTPase; [7]): 6 percentage
- Activity, percentage of phosphate released relative to control in which the effector was omitted (TCΔC11.PTPase [2]; effector 0.01 µM): 70 percentage
- Activity, percentage of phosphate released relative to control in which the effector was omitted (TCΔC11.PTPase [2]; effector 1 µM): 17 percentage
- Activity, percentage of phosphate released relative to control in which the effector was omitted (TCΔC11.PTPase [2]; effector 10 µM): 11 percentage
- Activity, percentage of phosphate released relative to control in which the effector was omitted (TCΔC11.PTPase [1]; [4]): 102 percentage
- Activity, percentage of phosphate released relative to control in which the effector was omitted (TCΔC11.PTPase [1]; [5]): 104 percentage
- Activity, percentage of phosphate released relative to control in which the effector was omitted (TCΔC11.PTPase [1]; [6]): 127 percentage

Compound: vanadate
- Activity, percentage of phosphate released relative to control in which the effector was omitted (TC.PTPase; [8]): 0 percentage
- Activity, percentage of phosphate released relative to control in which the effector was omitted (TC.PTPase; effector 100 µM, substrate RCML 5 µM): 0 percentage
- Activity, percentage of phosphate released relative to control in which the effector was omitted (TCΔC11.PTPase [2]; effector 100 µM): 2 percentage
- Activity, percentage of phosphate released relative to control in which the effector was omitted (TCΔC11.PTPase [1]; [8]): 1 percentage

Compound: molybdate
- Activity, percentage of phosphate released relative to control in which the effector was omitted (TC.PTPase; [6]): 1 percentage
- Activity, percentage of phosphate released relative to control in which the effector was omitted (TC.PTPase; [7]): 0 percentage
- Activity, percentage of phosphate released relative to control in which the effector was omitted (TCΔC11.PTPase [2]; effector 10 µM): 2 percentage
- Activity, percentage of phosphate released relative to control in which the effector was omitted (TCΔC11.PTPase [1]; [6]): 2 percentage

Compound: O=C(O)CN(CCN(CC(=O)O)CC(=O)O)CC(=O)O [EDTA]
- Activity, percentage of phosphate released relative to control in which the effector was omitted (TC.PTPase): 124 percentage and 137 percentage
- Activity, percentage of phosphate released relative to control in which the effector was omitted (TCΔC11.PTPase [1]): 170 percentage and 150 percentage
